Source: ChEMBL document CHEMBL4004891, “Antioxidant Properties of Novel Dimers Derived from Natural β-Elemene through Inhibiting H2O2-Induced Apoptosis” (ACS Med Chem Lett, 2017)
Calls of active or inactive are those of the source. The rule behind the calls is not given here.

Key:
[1] = test system: HUVEC; assay: Cytoprotective activity against H2O2-induced cell injury in HUVEC assessed as increase in cell viability at 10 uM pretreated for 24 hrs followed by H2O2-stimulation after 2 hrs by MTT assay; format: functional, cell-based; conditions: Homo sapiens
[2] = test system: HUVEC; assay: Cytoprotective activity against H2O2-induced cell injury in HUVEC assessed as increase in cell viability at 100 uM pretreated for 24 hrs followed by H2O2-stimulation after 2 hrs by MTT assay; format: functional, cell-based; conditions: Homo sapiens

Molecule | Activity [1] | Activity [2]
C=C[C@]1(C)CC[C@@H](C(=C)COCc2cn(CCCCCC(=O)OCC(=C)[C@@H]3CC[C@@](C)(C=C)[C@H](C(=C)C)C3)nn2)C[C@H]1C(=C)C | Active | 
C=C[C@]1(C)CC[C@@H](C(=C)COC(=O)CCCCn2cc(C(=O)OCC(=C)[C@@H]3CC[C@@](C)(C=C)[C@H](C(=C)C)C3)nn2)C[C@H]1C(=C)C | Active | 
C=C[C@]1(C)CC[C@@H](C(=C)COC(=O)C(=O)OCC(=C)[C@@H]2CC[C@@](C)(C=C)[C@H](C(=C)C)C2)C[C@H]1C(=C)C | Active | 
C=C[C@]1(C)CC[C@@H](C(=C)COC(=O)c2cn(CCCCCCn3cc(C(=O)OCC(=C)[C@@H]4CC[C@@](C)(C=C)[C@H](C(=C)C)C4)nn3)nn2)C[C@H]1C(=C)C | Active | 
C=C[C@]1(C)CC[C@@H](C(=C)COC(=O)COCC(=O)OCC(=C)[C@@H]2CC[C@@](C)(C=C)[C@H](C(=C)C)C2)C[C@H]1C(=C)C | Active | 
C=C[C@]1(C)CC[C@@H](C(=C)COC(=O)c2cn(CCCCn3cc(C(=O)OCC(=C)[C@@H]4CC[C@@](C)(C=C)[C@H](C(=C)C)C4)nn3)nn2)C[C@H]1C(=C)C | Active | 
C=C[C@]1(C)CC[C@@H](C(=C)COC(=O)CCC(=O)OCC(=C)[C@@H]2CC[C@@](C)(C=C)[C@H](C(=C)C)C2)C[C@H]1C(=C)C | Active | 
C=C[C@]1(C)CC[C@@H](C(=C)COC(=O)c2cccc3cccc(C(=O)OCC(=C)[C@@H]4CC[C@@](C)(C=C)[C@H](C(=C)C)C4)c23)C[C@H]1C(=C)C | Active | 
C=C[C@]1(C)CC[C@@H](C(=C)COC(=O)CC(=O)OCC(=C)[C@@H]2CC[C@@](C)(C=C)[C@H](C(=C)C)C2)C[C@H]1C(=C)C | Active | 
C=C[C@]1(C)CC[C@@H](C(=C)COC(=O)CC[C@H](N)C(=O)OCC(=C)[C@@H]2CC[C@@](C)(C=C)[C@H](C(=C)C)C2)C[C@H]1C(=C)C | Active | 
C=C[C@]1(C)CC[C@@H](C(=C)COC(=O)CCN(C)CCN(C)CCC(=O)OCC(=C)[C@@H]2CC[C@@](C)(C=C)[C@H](C(=C)C)C2)C[C@H]1C(=C)C | Active | 
C=C[C@]1(C)CC[C@@H](C(=C)COC(=O)CCCN(C)CCN(C)CCCC(=O)OCC(=C)[C@@H]2CC[C@@](C)(C=C)[C@H](C(=C)C)C2)C[C@H]1C(=C)C | Active | 
C=C[C@]1(C)CC[C@@H](C(=C)COC(=O)C[C@H](N)C(=O)OCC(=C)[C@@H]2CC[C@@](C)(C=C)[C@H](C(=C)C)C2)C[C@H]1C(=C)C | Active | 
C=C[C@]1(C)CC[C@@H](C(=C)COCc2cn(CCCCCCn3cc(COCC(=C)[C@@H]4CC[C@@](C)(C=C)[C@H](C(=C)C)C4)nn3)nn2)C[C@H]1C(=C)C | Active | 
C=C[C@]1(C)CC[C@@H](C(=C)COC(=O)CCN2CCN(CCC(=O)OCC(=C)[C@@H]3CC[C@@](C)(C=C)[C@H](C(=C)C)C3)CC2)C[C@H]1C(=C)C | Active | 
C=C[C@]1(C)CC[C@@H](C(=C)COCc2cn(CCCCn3cc(COCC(=C)[C@@H]4CC[C@@](C)(C=C)[C@H](C(=C)C)C4)nn3)nn2)C[C@H]1C(=C)C | Active | 
C=C[C@]1(C)CC[C@@H](C(=C)CN2CCN(CC(=C)[C@@H]3CC[C@@](C)(C=C)[C@H](C(=C)C)C3)CC2)C[C@H]1C(=C)C | Active | 
C=C[C@]1(C)CC[C@@H](C(=C)COCc2cn(CCCC(=O)OCC(=C)[C@@H]3CC[C@@](C)(C=C)[C@H](C(=C)C)C3)nn2)C[C@H]1C(=C)C | Active | 
C=C[C@]1(C)CC[C@@H](C(=C)COCc2cn(CCCCC(=O)OCC(=C)[C@@H]3CC[C@@](C)(C=C)[C@H](C(=C)C)C3)nn2)C[C@H]1C(=C)C | Active | 
C=C[C@]1(C)CC[C@@H](C(=C)COC(=O)c2cccc(C(=O)OCC(=C)[C@@H]3CC[C@@](C)(C=C)[C@H](C(=C)C)C3)c2)C[C@H]1C(=C)C | Active | 
VITAMIN E |  | Active
C=C[C@]1(C)CC[C@@H](C(=C)COC(=O)CCCN2CCN(CCCC(=O)OCC(=C)[C@@H]3CC[C@@](C)(C=C)[C@H](C(=C)C)C3)CC2)C[C@H]1C(=C)C | Active | 
C=C[C@]1(C)CC[C@@H](C(=C)COCCCCOCC(=C)[C@@H]2CC[C@@](C)(C=C)[C@H](C(=C)C)C2)C[C@H]1C(=C)C | Active | 
C=C[C@]1(C)CC[C@@H](C(=C)COC(=O)CCCC(=O)OCC(=C)[C@@H]2CC[C@@](C)(C=C)[C@H](C(=C)C)C2)C[C@H]1C(=C)C | Active | 
C=C[C@]1(C)CC[C@@H](C(=C)CN(C)CCN(C)CC(=C)[C@@H]2CC[C@@](C)(C=C)[C@H](C(=C)C)C2)C[C@H]1C(=C)C | Active | 
C=C[C@]1(C)CC[C@@H](C(=C)COC(=O)[C@@H]2[C@H](C(=O)OCC(=C)[C@@H]3CC[C@@](C)(C=C)[C@H](C(=C)C)C3)[C@@H]3C=C[C@H]2C3)C[C@H]1C(=C)C | Active | 
C=C[C@]1(C)CC[C@@H](C(=C)COC(=O)c2ccc(C(=O)OCC(=C)[C@@H]3CC[C@@](C)(C=C)[C@H](C(=C)C)C3)cc2)C[C@H]1C(=C)C | Active | 
C=C[C@]1(C)CC[C@@H](C(=C)COC(=O)CCCn2cc(C(=O)OCC(=C)[C@@H]3CC[C@@](C)(C=C)[C@H](C(=C)C)C3)nn2)C[C@H]1C(=C)C | Active | 
C=C[C@]1(C)CC[C@@H](C(=C)COC(=O)CCCCCn2cc(C(=O)OCC(=C)[C@@H]3CC[C@@](C)(C=C)[C@H](C(=C)C)C3)nn2)C[C@H]1C(=C)C | Active | 
C=C[C@]1(C)CC[C@@H](C(=C)COC(=O)CCC(=O)N2CCN(C(=O)CCC(=O)OCC(=C)[C@@H]3CC[C@@](C)(C=C)[C@H](C(=C)C)C3)CC2)C[C@H]1C(=C)C | Active | 
